Experimental data as given in patent publication US20260242419A1, “A CYCLIC PEPTIDE FOR TRAPPING INTERLEUKIN-1 BETA” (Merck Sharp & Dohme LLC, priority 2023, published 2026).
Starred links: 1 amine or outer side, 2 acyl side, 3 side chain; linkers in the order of their positions; H or OH if unused. Non-standard residues stand in square brackets, D forms with d. Residues, ends and D or L forms follow the SMILES beside them. Phe(4-(cis-4-COOH-cHex)) = N[C@@H](Cc1ccc([C@H]2CC[C@@H](C(=O)O)CC2)cc1)C(=O)O; dPro(4R-(4-pyridylmethyl)) = O=C(O)[C@H]1C[C@@H](Cc2ccncc2)CN1; X17 = CN(C)C(=O)c1ccc(-c2ccc(C[C@H](N[*:1])C(=O)[*:2])cc2)cc1; Trp(βS-Me,4-F) = C[C@@H](c1c[nH]c2cccc(F)c12)[C@H](N)C(=O)O; Bip(4'-CONH2) = NC(=O)c1ccc(-c2ccc(C[C@H](N)C(=O)O)cc2)cc1; Bip(4'-COOH) = N[C@@H](Cc1ccc(-c2ccc(C(=O)O)cc2)cc1)C(=O)O; Ala(1-bicyclo(1.1.1)pentyl) = N[C@@H](CC12CC(C1)C2)C(=O)O; dPro(4R-Bzl(4-F)) = O=C(O)[C@H]1C[C@@H](Cc2ccc(F)cc2)CN1; dPro(3S-(4-F-Bn)) = O=C(O)[C@@H]1NCC[C@@H]1Cc1ccc(F)cc1; X29 = O=C([C@H]1[C@@H](Cc2ccc(Cl)cc2)CCN1[*:1])[*:2]; Ala(pyrimidin-5-yl) = N[C@@H](Cc1cncnc1)C(=O)O; Phe(4-COOH) = N[C@@H](Cc1ccc(C(=O)O)cc1)C(=O)O; Bip = N[C@@H](Cc1ccc(-c2ccccc2)cc1)C(=O)O; Pro(cis-4-F) = O=C(O)[C@@H]1C[C@H](F)CN1; X6 = O=C([C@H](Cc1ccncn1)N[*:1])[*:2]; AEF = NCCOc1ccc(C[C@H](N)C(=O)O)cc1; d(αMeD) = C[C@@](N)(CC(=O)O)C(=O)O; 4Pal = N[C@@H](Cc1ccncc1)C(=O)O; aThr = C[C@H](O)[C@H](N)C(=O)O; d(αMeS) = C[C@@](N)(CO)C(=O)O; Dab = NCC[C@H](N)C(=O)O; Aib = CC(C)(N)C(=O)O; Sar = CNCC(=O)O

Biological target: T1, IL-1β (Homo sapiens, UniProt P01584)
T1 construct: purchased BioLegend 579404
Assay: IL-6 assay in MRC5 cells: inhibition of IL-1β induced IL-6 secretion (AlphaLISA)
Type: cell-based
Conditions: inhibition of IL-1β induced IL-6 secretion in MRC5 cells; read-out: MRC5 IC50
Procedure, shortened: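 Compound was pre-incubated 1 h at ambient temperature with recombinant human IL-1β at 2λ EC80 before adding human lung fibroblast MRC5 cells (3000/well) in EMEM with 0.025% BSA. After overnight culture at 37 °C, 5% CO2, secreted IL-6 in conditioned medium was measured by AlphaLISA; IC50 from 4-parameter logistic fits.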

T1 sequence (P01584 117-269): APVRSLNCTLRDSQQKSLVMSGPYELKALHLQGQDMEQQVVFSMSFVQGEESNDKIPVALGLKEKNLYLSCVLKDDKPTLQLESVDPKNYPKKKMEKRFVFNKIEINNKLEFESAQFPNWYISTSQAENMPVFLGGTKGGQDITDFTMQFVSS

Compound | IC50 [nM]
C[C@@H](c1c[nH]c2cccc(F)c12)[C@@H]1NC(=O)[C@@H]2C[C@H](F)CN2C(=O)CNC(=O)[C@H](Cc2ccc(C(=O)O)cc2)NC(=O)[C@H](Cc2ccncc2)NC(=O)[C@H](Cc2ccc(-c3ccc(C(=O)O)cc3)cc2)NC(=O)[C@H]2[C@@H](Cc3ccc(Cl)cc3)CCN2C(=O)CNC(=O)[C@H](CCN)NC(=O)[C@H](CCC(N)=O)NC(=O)[C@H](Cc2cncnc2)NC(=O)[C@@](C)(CC(=O)O)NC(=O)[C@H](Cc2c[nH]c3ccccc23)NC(=O)[C@H](CO)NC(=O)C(C)(C)NC1=O [Example 330] (cyclo([Bip(4'-COOH)][4Pal][Phe(4-COOH)]G[Pro(cis-4-F)][Trp(βS-Me,4-F)][Aib]SW[d(αMeD)][Ala(pyrimidin-5-yl)]Q[Dab]G[X29])) | 0.008
CC(=O)NCCOc1ccc(C[C@@H]2NC(=O)[C@H]3C[C@@H](Cc4ccncc4)CN3C(=O)CNC(=O)[C@H](CCN)NC(=O)[C@H](CCC(N)=O)NC(=O)[C@H](Cc3ccccc3)NC(=O)C(C)(C)NC(=O)[C@H](Cc3c[nH]c4ccccc34)NC(=O)[C@H](CCC(=O)O)NC(=O)C(C)(C)NC(=O)[C@H]([C@@H](C)c3c[nH]c4cccc(F)c34)NC(=O)[C@@H]3C[C@H](F)CN3C(=O)CNC(=O)[C@H](Cc3ccc(C(=O)O)cc3)NC(=O)[C@H](Cc3ccncc3)NC2=O)cc1 [Example 336] (cyclo([AEF](Ac)[4Pal][Phe(4-COOH)]G[Pro(cis-4-F)][Trp(βS-Me,4-F)][Aib]EW[Aib]FQ[Dab]G[dPro(4R-(4-pyridylmethyl))])) | 0.023
C[C@H](O)[C@@H]1NC(=O)[C@@](C)(CC(=O)O)NC(=O)[C@H](Cc2c[nH]c3ccccc23)NC(=O)[C@H](CO)NC(=O)C(C)(C)NC(=O)[C@H]([C@@H](C)c2c[nH]c3cccc(F)c23)NC(=O)[C@@H]2C[C@H](F)CN2C(=O)CNC(=O)[C@H](Cc2ccc(C(=O)O)cc2)NC(=O)[C@H](Cc2ccncc2)NC(=O)[C@H](Cc2ccc(-c3ccc(C(=O)O)cc3)cc2)NC(=O)[C@H]2C[C@@H](Cc3ccncc3)CN2C(=O)CN(C)C(=O)[C@H](CCN)NC(=O)[C@H](CCC(N)=O)NC1=O [Example 337] (cyclo([Bip(4'-COOH)][4Pal][Phe(4-COOH)]G[Pro(cis-4-F)][Trp(βS-Me,4-F)][Aib]SW[d(αMeD)][aThr]Q[Dab][Sar][dPro(4R-(4-pyridylmethyl))])) | 0.022
C[C@@H](c1c[nH]c2cccc(F)c12)[C@@H]1NC(=O)[C@@H]2C[C@H](F)CN2C(=O)CNC(=O)[C@H](Cc2ccc(C(=O)O)cc2)NC(=O)[C@H](Cc2ccncc2)NC(=O)[C@H](Cc2ccc(-c3ccc(C(=O)N(C)C)cc3)cc2)NC(=O)[C@H]2C[C@@H](Cc3ccncc3)CN2C(=O)CNC(=O)[C@H](CCN)NC(=O)[C@H](CCC(N)=O)NC(=O)[C@H](Cc2cncnc2)NC(=O)[C@@](C)(CO)NC(=O)[C@H](Cc2c[nH]c3ccccc23)NC(=O)[C@H](CO)NC(=O)C(C)(C)NC1=O [Example 338] (cyclo([X17][4Pal][Phe(4-COOH)]G[Pro(cis-4-F)][Trp(βS-Me,4-F)][Aib]SW[d(αMeS)][Ala(pyrimidin-5-yl)]Q[Dab]G[dPro(4R-(4-pyridylmethyl))])) | 0.018
C[C@@H](c1c[nH]c2cccc(F)c12)[C@@H]1NC(=O)[C@@H]2C[C@H](F)CN2C(=O)CNC(=O)[C@H](Cc2ccc(C(=O)O)cc2)NC(=O)[C@H](Cc2ccncc2)NC(=O)[C@H](Cc2ccc(-c3ccc(C(N)=O)cc3)cc2)NC(=O)[C@H]2C[C@@H](Cc3ccncc3)CN2C(=O)CNC(=O)[C@H](CCN)NC(=O)[C@H](CCC(N)=O)NC(=O)[C@H](Cc2cncnc2)NC(=O)[C@@](C)(CO)NC(=O)[C@H](Cc2c[nH]c3ccccc23)NC(=O)[C@H](CO)NC(=O)C(C)(C)NC1=O [Example 339] (cyclo([Bip(4'-CONH2)][4Pal][Phe(4-COOH)]G[Pro(cis-4-F)][Trp(βS-Me,4-F)][Aib]SW[d(αMeS)][Ala(pyrimidin-5-yl)]Q[Dab]G[dPro(4R-(4-pyridylmethyl))])) | 0.024

Further molecules by falling IC50, results first:

IC50 [nM] | Compound
0.024 | C[C@@H](c1c[nH]c2cccc(F)c12)[C@@H]1NC(=O)[C@@H]2C[C@H](F)CN2C(=O)CNC(=O)[C@H](Cc2ccc(C(=O)O)cc2)NC(=O)[C@H](CC23CC(C2)C3)NC(=O)[C@H](Cc2ccc(-c3ccc(C(=O)N(C)C)cc3)cc2)NC(=O)[C@H]2C[C@@H](Cc3ccncc3)CN2C(=O)CNC(=O)[C@H](CCN)NC(=O)[C@H](CCC(N)=O)NC(=O)[C@H](Cc2cncnc2)NC(=O)[C@@](C)(CC(=O)O)NC(=O)[C@H](Cc2c[nH]c3ccccc23)NC(=O)[C@H](CO)NC(=O)C(C)(C)NC1=O [Example 341] (cyclo([X17][Ala(1-bicyclo(1.1.1)pentyl)][Phe(4-COOH)]G[Pro(cis-4-F)][Trp(βS-Me,4-F)][Aib]SW[d(αMeD)][Ala(pyrimidin-5-yl)]Q[Dab]G[dPro(4R-(4-pyridylmethyl))]))
0.022 | C[C@@H](c1c[nH]c2cccc(F)c12)[C@@H]1NC(=O)[C@@H]2C[C@H](F)CN2C(=O)CNC(=O)[C@H](Cc2ccc(C(=O)O)cc2)NC(=O)[C@H](Cc2ccncc2)NC(=O)[C@H](Cc2ccc(-c3ccccc3)cc2)NC(=O)[C@H]2C[C@@H](Cc3ccncc3)CN2C(=O)CNC(=O)[C@H](CCN)NC(=O)[C@H](CCC(N)=O)NC(=O)[C@H](Cc2cncnc2)NC(=O)[C@@](C)(CC(=O)O)NC(=O)[C@H](Cc2c[nH]c3ccccc23)NC(=O)[C@H](CO)NC(=O)C(C)(C)NC1=O [Example 333] (cyclo([Bip][4Pal][Phe(4-COOH)]G[Pro(cis-4-F)][Trp(βS-Me,4-F)][Aib]SW[d(αMeD)][Ala(pyrimidin-5-yl)]Q[Dab]G[dPro(4R-(4-pyridylmethyl))]))
0.022 | C[C@H](O)[C@@H]1NC(=O)[C@@](C)(CC(=O)O)NC(=O)[C@H](Cc2c[nH]c3ccccc23)NC(=O)[C@H](CO)NC(=O)C(C)(C)NC(=O)[C@H]([C@@H](C)c2c[nH]c3cccc(F)c23)NC(=O)[C@@H]2C[C@H](F)CN2C(=O)CNC(=O)[C@H](Cc2ccc(C(=O)O)cc2)NC(=O)[C@H](CC23CC(C2)C3)NC(=O)[C@H](Cc2ccc([C@H]3CC[C@@H](C(=O)O)CC3)cc2)NC(=O)[C@H]2C[C@@H](Cc3ccncc3)CN2C(=O)CNC(=O)[C@H](CCN)NC(=O)[C@H](CCC(N)=O)NC1=O [Example 334] (cyclo([Phe(4-(cis-4-COOH-cHex))][Ala(1-bicyclo(1.1.1)pentyl)][Phe(4-COOH)]G[Pro(cis-4-F)][Trp(βS-Me,4-F)][Aib]SW[d(αMeD)][aThr]Q[Dab]G[dPro(4R-(4-pyridylmethyl))]))
0.022 | C[C@@H](c1c[nH]c2cccc(F)c12)[C@@H]1NC(=O)[C@@H]2C[C@H](F)CN2C(=O)CNC(=O)[C@H](Cc2ccc(C(=O)O)cc2)NC(=O)[C@H](CC23CC(C2)C3)NC(=O)[C@H](Cc2ccc([C@H]3CC[C@@H](C(=O)O)CC3)cc2)NC(=O)[C@H]2C[C@@H](Cc3ccncc3)CN2C(=O)CNC(=O)[C@H](CCN)NC(=O)[C@H](CCC(N)=O)NC(=O)[C@H](Cc2cncnc2)NC(=O)[C@@](C)(CC(=O)O)NC(=O)[C@H](Cc2c[nH]c3ccccc23)NC(=O)[C@H](CO)NC(=O)C(C)(C)NC1=O [Example 335] (cyclo([Phe(4-(cis-4-COOH-cHex))][Ala(1-bicyclo(1.1.1)pentyl)][Phe(4-COOH)]G[Pro(cis-4-F)][Trp(βS-Me,4-F)][Aib]SW[d(αMeD)][Ala(pyrimidin-5-yl)]Q[Dab]G[dPro(4R-(4-pyridylmethyl))]))
0.021 | C[C@@H](c1c[nH]c2cccc(F)c12)[C@@H]1NC(=O)[C@@H]2C[C@H](F)CN2C(=O)CNC(=O)[C@H](Cc2ccc(C(=O)O)cc2)NC(=O)[C@H](Cc2ccncc2)NC(=O)[C@H](Cc2ccc(-c3ccccc3)cc2)NC(=O)[C@H]2C[C@@H](Cc3ccncc3)CN2C(=O)CNC(=O)[C@H](CCN)NC(=O)[C@H](CCC(N)=O)NC(=O)[C@H](Cc2cncnc2)NC(=O)[C@@](C)(CO)NC(=O)[C@H](Cc2c[nH]c3ccccc23)NC(=O)[C@H](CO)NC(=O)C(C)(C)NC1=O [Example 340] (cyclo([Bip][4Pal][Phe(4-COOH)]G[Pro(cis-4-F)][Trp(βS-Me,4-F)][Aib]SW[d(αMeS)][Ala(pyrimidin-5-yl)]Q[Dab]G[dPro(4R-(4-pyridylmethyl))]))
0.013 | C[C@@H](c1c[nH]c2cccc(F)c12)[C@@H]1NC(=O)[C@@H]2C[C@H](F)CN2C(=O)CNC(=O)[C@H](Cc2ccc(C(=O)O)cc2)NC(=O)[C@H](Cc2ccncc2)NC(=O)[C@H](Cc2ccc(-c3ccc(C(=O)O)cc3)cc2)NC(=O)[C@H]2C[C@@H](Cc3ccc(F)cc3)CN2C(=O)CNC(=O)[C@H](CCN)NC(=O)[C@H](CCC(N)=O)NC(=O)[C@H](Cc2ccncn2)NC(=O)[C@@](C)(CC(=O)O)NC(=O)[C@H](Cc2c[nH]c3ccccc23)NC(=O)[C@H](CO)NC(=O)C(C)(C)NC1=O [Example 332] (cyclo([Bip(4'-COOH)][4Pal][Phe(4-COOH)]G[Pro(cis-4-F)][Trp(βS-Me,4-F)][Aib]SW[d(αMeD)][X6]Q[Dab]G[dPro(4R-Bzl(4-F))]))
0.011 | C[C@@H](c1c[nH]c2cccc(F)c12)[C@@H]1NC(=O)[C@@H]2C[C@H](F)CN2C(=O)CNC(=O)[C@H](Cc2ccc(C(=O)O)cc2)NC(=O)[C@H](Cc2ccncc2)NC(=O)[C@H](Cc2ccc(-c3ccc(C(=O)O)cc3)cc2)NC(=O)[C@H]2[C@@H](Cc3ccc(F)cc3)CCN2C(=O)CNC(=O)[C@H](CCN)NC(=O)[C@H](CCC(N)=O)NC(=O)[C@H](Cc2cncnc2)NC(=O)[C@@](C)(CC(=O)O)NC(=O)[C@H](Cc2c[nH]c3ccccc23)NC(=O)[C@H](CO)NC(=O)C(C)(C)NC1=O [Example 331] (cyclo([Bip(4'-COOH)][4Pal][Phe(4-COOH)]G[Pro(cis-4-F)][Trp(βS-Me,4-F)][Aib]SW[d(αMeD)][Ala(pyrimidin-5-yl)]Q[Dab]G[dPro(3S-(4-F-Bn))]))
